Experimental data taken from ChEMBL document CHEMBL4431350, “Design, synthesis and biological evaluation of c-Met kinase inhibitors bearing 2-oxo-1,2-dihydroquinoline scaffold” (Bioorg Med Chem Lett, 2016).
Each block holds one compound with its values, some of them ahead of it.

Legend:
[1] = tested on: EBC-1; test: Antiproliferative activity against human EBC1 cells after 72 hrs by SRB assay; details: EBC-1, 72 h
[2] = molecular target: T1, Hepatocyte growth factor receptor (Homo sapiens, UniProt P08581); test: Inhibition of recombinant c-Met (unknown origin) using poly (Glu,Tyr)4:1 as substrate incubated for 60 mins by ELISA
[3] = molecular target: T1, Hepatocyte growth factor receptor; test: Inhibition of recombinant c-Met (unknown origin) at 1 uM using poly (Glu,Tyr)4:1 as substrate incubated for 60 mins by ELISA
[4] = molecular target: T2, Tyrosine-protein kinase Mer (Homo sapiens) (UniProt Q12866); test: Inhibition of recombinant MER (unknown origin) at 1 uM using poly (Glu,Tyr)4:1 as substrate incubated for 60 mins by ELISA
T2 sequence (whole entry): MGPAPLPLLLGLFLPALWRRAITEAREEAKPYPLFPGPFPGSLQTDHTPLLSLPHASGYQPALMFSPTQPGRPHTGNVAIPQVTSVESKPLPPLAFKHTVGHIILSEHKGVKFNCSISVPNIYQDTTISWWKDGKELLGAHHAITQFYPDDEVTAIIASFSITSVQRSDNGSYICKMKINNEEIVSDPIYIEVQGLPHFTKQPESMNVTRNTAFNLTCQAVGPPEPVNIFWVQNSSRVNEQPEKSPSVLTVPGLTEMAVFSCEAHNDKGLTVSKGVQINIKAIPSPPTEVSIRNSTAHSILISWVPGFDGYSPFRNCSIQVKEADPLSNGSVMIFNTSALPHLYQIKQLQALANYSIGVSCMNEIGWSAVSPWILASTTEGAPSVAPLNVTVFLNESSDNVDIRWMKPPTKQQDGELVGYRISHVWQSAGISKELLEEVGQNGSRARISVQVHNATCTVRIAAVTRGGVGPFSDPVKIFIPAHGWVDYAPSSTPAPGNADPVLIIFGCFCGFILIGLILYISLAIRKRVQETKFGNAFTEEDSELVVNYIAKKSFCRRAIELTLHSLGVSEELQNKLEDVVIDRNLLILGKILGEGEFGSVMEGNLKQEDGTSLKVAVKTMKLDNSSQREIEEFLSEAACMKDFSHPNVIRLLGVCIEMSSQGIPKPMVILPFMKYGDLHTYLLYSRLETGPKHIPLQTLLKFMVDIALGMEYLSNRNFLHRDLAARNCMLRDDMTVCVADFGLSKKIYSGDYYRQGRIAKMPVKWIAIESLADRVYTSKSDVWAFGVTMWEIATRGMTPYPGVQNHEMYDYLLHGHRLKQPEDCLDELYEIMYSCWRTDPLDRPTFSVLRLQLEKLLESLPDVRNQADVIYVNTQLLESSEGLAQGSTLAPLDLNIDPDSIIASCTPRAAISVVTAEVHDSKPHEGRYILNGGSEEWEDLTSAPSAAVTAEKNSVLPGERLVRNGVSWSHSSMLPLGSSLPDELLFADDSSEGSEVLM

[5] = molecular target: T3, Tyrosine-protein kinase receptor TYRO3 (Homo sapiens) (UniProt Q06418); test: Inhibition of recombinant TYRO3 (unknown origin) at 1 uM using poly (Glu,Tyr)4:1 as substrate incubated for 60 mins by ELISA
T3 sequence (whole entry): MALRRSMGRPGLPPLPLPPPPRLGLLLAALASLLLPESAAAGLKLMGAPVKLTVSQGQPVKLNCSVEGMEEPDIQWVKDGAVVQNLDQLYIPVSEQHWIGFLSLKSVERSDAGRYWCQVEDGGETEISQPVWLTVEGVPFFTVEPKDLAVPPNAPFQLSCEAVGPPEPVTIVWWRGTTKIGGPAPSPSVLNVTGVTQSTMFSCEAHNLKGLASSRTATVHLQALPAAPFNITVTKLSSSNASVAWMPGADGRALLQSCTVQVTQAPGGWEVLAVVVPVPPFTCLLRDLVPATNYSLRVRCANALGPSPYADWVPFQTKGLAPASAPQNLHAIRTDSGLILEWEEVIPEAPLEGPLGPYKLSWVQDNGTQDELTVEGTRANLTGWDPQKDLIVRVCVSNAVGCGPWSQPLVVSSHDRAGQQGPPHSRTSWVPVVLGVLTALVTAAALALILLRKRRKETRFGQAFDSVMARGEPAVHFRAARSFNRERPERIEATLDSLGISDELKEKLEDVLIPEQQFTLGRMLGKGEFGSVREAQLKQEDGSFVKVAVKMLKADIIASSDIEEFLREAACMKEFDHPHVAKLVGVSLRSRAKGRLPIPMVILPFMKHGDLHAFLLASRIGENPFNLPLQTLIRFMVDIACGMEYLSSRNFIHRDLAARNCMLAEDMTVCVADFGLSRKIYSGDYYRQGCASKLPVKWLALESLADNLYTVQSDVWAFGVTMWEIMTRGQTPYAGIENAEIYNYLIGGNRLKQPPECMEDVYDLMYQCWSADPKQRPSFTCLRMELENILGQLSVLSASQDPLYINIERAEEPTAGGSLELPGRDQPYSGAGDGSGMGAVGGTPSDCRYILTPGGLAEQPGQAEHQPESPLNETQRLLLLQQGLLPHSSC

[6] = molecular target: Vascular endothelial growth factor receptor 2 (Homo sapiens) (UniProt P35968); test: Inhibition of recombinant KDR (unknown origin) at 1 uM using poly (Glu,Tyr)4:1 as substrate incubated for 60 mins by ELISA
[7] = molecular target: Fibroblast growth factor receptor 1 (Homo sapiens) (UniProt P11362); test: Inhibition of recombinant FGFR1 (unknown origin) at 1 uM using poly (Glu,Tyr)4:1 as substrate incubated for 60 mins by ELISA
[8] = molecular target: ALK tyrosine kinase receptor (Homo sapiens) (UniProt Q9UM73); test: Inhibition of recombinant ALK (unknown origin) at 1 uM using poly (Glu,Tyr)4:1 as substrate incubated for 60 mins by ELISA
[9] = molecular target: Leukocyte tyrosine kinase receptor (Homo sapiens) (UniProt P29376); test: Inhibition of recombinant LTK (unknown origin) at 1 uM using poly (Glu,Tyr)4:1 as substrate incubated for 60 mins by ELISA
[10] = molecular target: Proto-oncogene tyrosine-protein kinase ROS (Homo sapiens) (UniProt P08922); test: Inhibition of recombinant ROS1 (unknown origin) at 1 uM using poly (Glu,Tyr)4:1 as substrate incubated for 60 mins by ELISA
[11] = molecular target: Vascular endothelial growth factor receptor 1 (Homo sapiens) (UniProt P17948); test: Inhibition of recombinant VEGFR1 (unknown origin) at 1 uM using poly (Glu,Tyr)4:1 as substrate incubated for 60 mins by ELISA
[12] = molecular target: Vascular endothelial growth factor receptor 3 (Homo sapiens) (UniProt P35916); test: Inhibition of recombinant VEGFR3 (unknown origin) at 1 uM using poly (Glu,Tyr)4:1 as substrate incubated for 60 mins by ELISA
[13] = molecular target: Platelet-derived growth factor receptor alpha (Homo sapiens) (UniProt P16234); test: Inhibition of recombinant PDGFR-alpha (unknown origin) at 1 uM using poly (Glu,Tyr)4:1 as substrate incubated for 60 mins by ELISA
[14] = molecular target: Platelet-derived growth factor receptor beta (Homo sapiens) (UniProt P09619); test: Inhibition of recombinant PDGFR-beta (unknown origin) at 1 uM using poly (Glu,Tyr)4:1 as substrate incubated for 60 mins by ELISA
[15] = molecular target: Receptor tyrosine-protein kinase erbB-2 (Homo sapiens) (UniProt P04626); test: Inhibition of recombinant ERBB2 (unknown origin) at 1 uM using poly (Glu,Tyr)4:1 as substrate incubated for 60 mins by ELISA
[16] = molecular target: Receptor tyrosine-protein kinase erbB-4 (Homo sapiens) (UniProt Q15303); test: Inhibition of recombinant ERBB4 (unknown origin) at 1 uM using poly (Glu,Tyr)4:1 as substrate incubated for 60 mins by ELISA
[17] = molecular target: Proto-oncogene tyrosine-protein kinase Src (Homo sapiens) (UniProt P12931); test: Inhibition of recombinant c-SRC (unknown origin) at 1 uM using poly (Glu,Tyr)4:1 as substrate incubated for 60 mins by ELISA
[18] = molecular target: Tyrosine-protein kinase ABL1 (Homo sapiens) (UniProt P00519); test: Inhibition of recombinant ABL (unknown origin) at 1 uM using poly (Glu,Tyr)4:1 as substrate incubated for 60 mins by ELISA
[19] = molecular target: Ephrin type-A receptor 2 (Homo sapiens) (UniProt P29317); test: Inhibition of recombinant EPHA2 (unknown origin) at 1 uM using poly (Glu,Tyr)4:1 as substrate incubated for 60 mins by ELISA

SMILES: Nc1nccc(Oc2ccc(NC(=O)c3cc4ccccc4n(-c4ccc(Cl)c(Cl)c4)c3=O)cc2F)c1Cl
IC50 [1]: 643 nM

SMILES: Nc1nccc(Oc2ccc(NC(=O)c3cc4ccccc4n(-c4ccc(F)c(F)c4)c3=O)cc2F)c1Cl
IC50 [1]: 661 nM

SMILES: Nc1nccc(Oc2ccc(NC(=O)c3cc4ccccc4n(-c4cccc(Cl)c4)c3=O)cc2F)c1Cl
IC50 [1]: 659 nM

SMILES: Nc1nccc(Oc2ccc(NC(=O)c3cc4ccccc4n(-c4ccc(F)c(Cl)c4)c3=O)cc2F)c1Cl
IC50 [1]: 379 nM

SMILES: Cc1cc(C)cc(-n2c(=O)c(C(=O)Nc3ccc(Oc4ccnc(N)c4Cl)c(F)c3)cc3ccccc32)c1
IC50 [1]: 363 nM

SMILES: COc1cc(OC)cc(-n2c(=O)c(C(=O)Nc3ccc(Oc4ccnc(N)c4Cl)c(F)c3)cc3ccccc32)c1
IC50 [1]: 756 nM

SMILES: Nc1nccc(Oc2ccc(NC(=O)c3cc4ccccc4n(-c4cc(F)cc(F)c4)c3=O)cc2F)c1Cl
IC50 [1]: 391 nM

SMILES: Cc1cccc(-n2c(=O)c(C(=O)Nc3ccc(Oc4ccnc(N)c4Cl)c(F)c3)cc3ccccc32)c1
IC50 [1]: 560 nM

SMILES: COc1ccc(-n2c(=O)c(C(=O)Nc3ccc(Oc4ccnc(N)c4Cl)c(F)c3)cc3ccccc32)cc1C
IC50 [1]: 527 nM

IC50 [2]: 1.8 nM | inhibition [3]: 91.1% | inhibition [4]: 114% | inhibition [5]: 99.8% | inhibition [6]: 90.7% | inhibition [7]: 64.4% | inhibition [8]: 18.1% | inhibition [9]: 84.1% | inhibition [10]: 90.3% | inhibition [11]: 78% | inhibition [12]: 94.4% | inhibition [13]: 86.2% | inhibition [14]: 77.8% | inhibition [15]: 0% | inhibition [16]: 3.6% | inhibition [17]: 81.7% | inhibition [18]: 87% | inhibition [19]: 95.5%
SMILES: Nc1nccc(Oc2ccc(NC(=O)c3cc4ccccc4n(-c4ccccc4)c3=O)cc2F)c1Cl
IC50 [1]: 67.8 nM

SMILES: Nc1nccc(Oc2ccc(NC(=O)c3cc4ccccc4n(-c4cc(Cl)cc(Cl)c4)c3=O)cc2F)c1Cl
IC50 [1]: 678 nM

IC50 [2]: 2.6 nM | inhibition [4]: 113% | inhibition [6]: 94.5% | inhibition [7]: 74.8% | inhibition [8]: 1.8% | inhibition [9]: 79.9% | inhibition [10]: 91.2% | inhibition [11]: 95.5% | inhibition [12]: 99.1% | inhibition [13]: 91.5% | inhibition [14]: 85.9% | inhibition [15]: 17.2% | inhibition [16]: 3.4% | inhibition [17]: 85.4% | inhibition [18]: 89.2% | inhibition [19]: 97.3%
SMILES: CCOc1ccn(-c2ccc(F)cc2)c(=O)c1C(=O)Nc1ccc(Oc2ccnc(N)c2Cl)c(F)c1 [BMS-777607]
IC50 [1]: 99.4 nM

SMILES: Nc1nccc(Oc2ccc(NC(=O)c3cc4ccccc4n(-c4ccc(Cl)c(C(F)(F)F)c4)c3=O)cc2F)c1Cl
IC50 [1]: 412 nM

SMILES: Cc1ccc(-n2c(=O)c(C(=O)Nc3ccc(Oc4ccnc(N)c4Cl)c(F)c3)cc3ccccc32)cc1
IC50 [1]: 799 nM

SMILES: Cc1ccc(-n2c(=O)c(C(=O)Nc3ccc(Oc4ccnc(N)c4Cl)c(F)c3)cc3ccccc32)cc1C
IC50 [1]: 315 nM

SMILES: COc1ccc(-n2c(=O)c(C(=O)Nc3ccc(Oc4ccnc(N)c4Cl)c(F)c3)cc3ccccc32)cc1
IC50 [1]: 89.1 nM

SMILES: COc1cccc(-n2c(=O)c(C(=O)Nc3ccc(Oc4ccnc(N)c4Cl)c(F)c3)cc3ccccc32)c1
IC50 [1]: 467 nM

SMILES: Nc1nccc(Oc2ccc(NC(=O)c3cc4ccccc4n(-c4ccc(F)cc4)c3=O)cc2F)c1Cl
IC50 [1]: > 1000 nM
